The results in this text go back to patent US20260355196A1, “INHIBITORS AND DEGRADERS OF PIP4K PROTEIN” (Larkspur Biosciences, Inc., priority 2023, published 2026).

The term DC50 denotes the concentration at which degradation of the target reaches its halfway point.

This test addresses T1, PIP4K2C (Homo sapiens, UniProt Q8TBX8).
T1 sequence (Q8TBX8 1-421): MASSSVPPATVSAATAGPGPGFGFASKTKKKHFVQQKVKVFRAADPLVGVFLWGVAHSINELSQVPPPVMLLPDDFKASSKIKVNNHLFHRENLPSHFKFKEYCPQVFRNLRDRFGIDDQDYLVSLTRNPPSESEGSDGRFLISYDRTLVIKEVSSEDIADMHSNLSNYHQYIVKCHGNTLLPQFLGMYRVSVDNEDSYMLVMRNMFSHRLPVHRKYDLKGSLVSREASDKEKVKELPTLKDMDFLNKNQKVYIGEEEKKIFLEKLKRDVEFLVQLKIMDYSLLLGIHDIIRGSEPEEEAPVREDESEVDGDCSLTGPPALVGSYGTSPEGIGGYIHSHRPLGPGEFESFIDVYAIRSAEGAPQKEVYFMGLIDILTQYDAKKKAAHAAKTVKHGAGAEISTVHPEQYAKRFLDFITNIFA
Briefly: HiBiT PIP4K2C degradation assay in MOLT-4 cells (endogenous PIP4K2C C-terminally tagged with HiBiT). The format is cell-based. More on the design: untagged in primary human PBMCs and monocyte-derived dendritic cells. The conditions noted are these: 6 hours of incubation time, rather than 24 hours; MOLT-4, top concentration 10 micromolar; read-out: HiBIT-degradation MOLT4 PIP4k2C DC50 (6 hours, marked *). In outline: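 MOLT-4 knock-in line, HiBiT on PIP4K2C C-terminus; 22,500 cells/well; 10-pt 3-fold titration from 10 micromolar, n=2; 24 h or 6 h, 37 C, 5% CO2; Nano-Glo HiBiT lytic luminescence; DC50 via Hill equation.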
(HiBiT is a short tag that completes a luciferase, so light tracks the accessible tagged protein.)
On to `O=C1CCC(Nc2ccc(N3CCC(N4CCC(C(=O)N[C@H]5CC[C@H](Nc6ncc(F)c(-c7cccc(-n8ccccc8=O)c7)n6)CC5)CC4)C(F)C3)c(F)c2)C(=O)N1` (some centres unmarked) [Compound 405, 1′-(4-((2,6-dioxopiperidin-3-yl)amino)-2-fluorophenyl)-3′-fluoro-N-((1r,4r)-4-((5-fluoro-4-(3-(2-oxopyridin-1(2H)-yl)phenyl)pyrimidin-2-yl)amino)cyclohexyl)-[1,4′-bipiperidine]-4-carboxamide], for which the half-maximal degradation concentration (DC50) was less than 0.5 µM.
Consider `O=C1CCC(Nc2ccc(N3CCC(N4CCC(C(=O)N[C@H]5CC[C@H](Nc6ncc(F)c(-c7cccc(-c8ccc[nH]c8=O)c7)n6)CC5)CC4)C(F)C3)c(F)c2)C(=O)N1` (some centres unmarked) [Compound 406, 1′-(4-((2,6-dioxopiperidin-3-yl)amino)-2-fluorophenyl)-3′-fluoro-N-((1r,4r)-4-((5-fluoro-4-(3-(2-oxo-1,2-dihydropyridin-3-yl)phenyl)pyrimidin-2-yl)amino)cyclohexyl)-[1,4′-bipiperidine]-4-carboxamide], for which the half-maximal degradation concentration (DC50) was less than 0.5 µM.
Consider `O=C1CCC(Nc2ccc(N3CCC(CC4CCN(C(=O)[C@H]5CC[C@H](Nc6ncc(F)c(-c7cccc(-c8ccc[nH]c8=O)c7)n6)CC5)CC4)CC3)c(F)c2)C(=O)N1` (stereo partly drawn) [Compound 407, trans-3-((3-fluoro-4-(4-((1-(4-((5-fluoro-4-(3-(2-oxo-1,2-dihydropyridin-3-yl)phenyl)pyrimidin-2-yl)amino)cyclohexane-1-carbonyl)piperidin-4-yl)methyl)piperidin-1-yl)phenyl)amino)piperidine-2,6-dione], for which the DC50 is less than 0.5 µM.
The same measure for `O=C1CCC(Nc2ccc(C3CCN(CC4CCN(C(=O)[C@H]5CC[C@H](Nc6ncc(F)c(-c7cccc(-c8ccc[nH]c8=O)c7)n6)CC5)CC4)CC3(F)F)c(F)c2)C(=O)N1` (stereo partly drawn) [Compound 408, trans-3-[4-[3,3-difluoro-1-[[1-[4-[[5-fluoro-4-[3-(2-oxo-1H-pyridin-3-yl)phenyl]pyrimidin-2-yl]amino]cyclohexanecarbonyl]-4-piperidyl]methyl]-4-piperidyl]-3-fluoro-anilino]piperidine-2,6-dione]: less than 0.5 µM.
As for `O=C1CCC(Nc2ccc(C3CCN(CC4(O)CCN(C(=O)[C@H]5CC[C@H](Nc6ncc(F)c(-c7cccc(-n8ccccc8=O)c7)n6)CC5)CC4)CC3)c(F)c2)C(=O)N1` (stereo partly drawn) [Compound 409, trans-3-((3-fluoro-4-(1-((1-(-4-((5-fluoro-4-(3-(2-oxopyridin-1(2H)-yl)phenyl)pyrimidin-2-yl)amino)cyclohexane-1-carbonyl)-4-hydroxypiperidin-4-yl)methyl)piperidin-4-yl)phenyl)amino)piperidine-2,6-dione], the half-maximal degradation concentration (DC50) was less than 0.5 µM.
As to `O=C1CCC(Nc2ccc(N3CCC(O)(CN4CCN(C(=O)[C@H]5CC[C@H](Nc6ncc(F)c(-c7cccc(-n8ccccc8=O)c7)n6)CC5)CC4)CC3)c(F)c2)C(=O)N1` (stereo partly drawn) [Compound 410, trans-3-((3-fluoro-4-(4-((4-(4-((5-fluoro-4-(3-(2-oxopyridin-1(2H)-yl)phenyl)pyrimidin-2-yl)amino)cyclohexane-1-carbonyl)piperazin-1-yl)methyl)-4-hydroxypiperidin-1-yl)phenyl)amino)piperidine-2,6-dione], the DC50 is less than 0.5 µM.
The same measure for `O=C1CCC(Nc2ccc(N3CCN([C@H]4CC[C@H](C(=O)N[C@H]5CC[C@H](Nc6ncc(F)c(-c7cccc(N8CCOC8=O)c7)n6)CC5)CC4)CC3)c(F)c2)C(=O)N1` (stereo partly drawn) [Compound 411, trans-(1r,4R)-4-(4-(4-((2,6-dioxopiperidin-3-yl)amino)-2-fluorophenyl)piperazin-1-yl)-N-((1r,4R)-4-((5-fluoro-4-(3-(2-oxooxazolidin-3-yl)phenyl)pyrimidin-2-yl)amino)cyclohexyl)cyclohexane-1-carboxamide]: more than 5 µM; for `O=C1CC[C@@H](Nc2ccc(N3CCN([C@H]4CC[C@H](C(=O)N[C@H]5CC[C@H](Nc6ncc(F)c(-c7cccc(N8CCCCC8=O)c7)n6)CC5)CC4)CC3)c(F)c2)C(=O)N1` [Compound 412, trans-(1r,4R)-4-(4-(4-((2,6-dioxopiperidin-3-yl)amino)-2-fluorophenyl)piperazin-1-yl)-N-((1r,4R)-4-((5-fluoro-4-(3-(2-oxopiperidin-1-yl)phenyl)pyrimidin-2-yl)amino)cyclohexyl)cyclohexane-1-carboxamide]: less than 0.5 µM.
Regarding `O=C1CCC(Nc2ccc(N3CCC(OC4CCN(C(=O)[C@H]5CC[C@H](Nc6ncc(F)c(-c7cccc(N8CCCCC8=O)c7)n6)CC5)CC4)CC3)c(F)c2)C(=O)N1` (stereo partly drawn) [Compound 413, trans-3-((3-fluoro-4-(4-((1-(4-((5-fluoro-4-(3-(2-oxopiperidin-1-yl)phenyl)pyrimidin-2-yl)amino)cyclohexane-1-carbonyl)piperidin-4-yl)oxy)piperidin-1-yl)phenyl)amino)piperidine-2,6-dione], the half-maximal degradation concentration (DC50) was less than 0.5 µM.
For the compound `O=C1CCC(Nc2ccc(N3CCC(CC4CCN(C(=O)[C@H]5CC[C@H](Nc6ncc(F)c(-c7cccc(N8CCCCC8=O)c7)n6)CC5)CC4)CC3)c(F)c2)C(=O)N1` (stereo partly drawn) [Compound 414, trans-3-((3-fluoro-4-(4-((1-(-4-((5-fluoro-4-(3-(2-oxopiperidin-1-yl)phenyl)pyrimidin-2-yl)amino)cyclohexane-1-carbonyl)piperidin-4-yl)methyl)piperidin-1-yl)phenyl)amino)piperidine-2,6-dione], the 50% degradation concentration (DC50) is less than 0.5 µM.
The figure for `O=C1CCC(Nc2ccc(N3CCC(CN4CCN(C(=O)[C@H]5CC[C@H](Nc6ncc(F)c(-c7cccc(N8CCCCC8=O)c7)n6)CC5)CC4)CC3)c(F)c2)C(=O)N1` (stereo partly drawn) [Compound 415, trans-3-((3-fluoro-4-(4-((4-(4-((5-fluoro-4-(3-(2-oxopiperidin-1-yl)phenyl)pyrimidin-2-yl)amino)cyclohexane-1-carbonyl)piperazin-1-yl)methyl)piperidin-1-yl)phenyl)amino)piperidine-2,6-dione] is less than 0.5 µM; for `O=C1CCC(Nc2ccc(N3CCN(C[C@H]4CC[C@H](CNC(=O)[C@H]5CC[C@H](Nc6ncc(F)c(-c7cccc(-n8ccccc8=O)c7)n6)CC5)CC4)CC3)c(F)c2)C(=O)N1` (stereo partly drawn) [Compound 416, trans-N-((trans-4-((4-(4-((2,6-dioxopiperidin-3-yl)amino)-2-fluorophenyl)piperazin-1-yl)methyl)cyclohexyl)methyl)-4-((5-fluoro-4-(3-(2-oxopyridin-1(2H)-yl)phenyl)pyrimidin-2-yl)amino)cyclohexane-1-carboxamide] it is less than 0.5 µM; for `Cn1nc(C2CCC(=O)NC2=O)c2ccc(N3CCN(CC4CCN(C(=O)[C@H]5CC[C@H](Nc6ncc(F)c(-c7cccc(-c8ccc[nH]c8=O)c7)n6)CC5)CC4)CC3)cc21` (stereo partly drawn) [Compound 417, 3-(6-(4-((1-(trans-4-((5-fluoro-4-(3-(2-oxo-1,2-dihydropyridin-3-yl)phenyl)pyrimidin-2-yl)amino)cyclohexane-1-carbonyl)piperidin-4-yl)methyl)piperazin-1-yl)-1-methyl-1H-indazol-3-yl)piperidine-2,6-dione] it is less than 0.5 µM.
As for `O=C1CCC(Nc2ccc(N3CCN([C@H]4CC[C@H](C(=O)N[C@H]5CC[C@H](Nc6ncc(F)c(-c7cccc(N8CCCOC8=O)c7)n6)CC5)CC4)CC3)c(F)c2)C(=O)N1` (stereo partly drawn) [Compound 424, trans-(1r,4R)-4-(4-(4-((2,6-dioxopiperidin-3-yl)amino)-2-fluorophenyl)piperazin-1-yl)-N-((1r,4R)-4-((5-fluoro-4-(3-(2-oxo-1,3-oxazinan-3-yl)phenyl)pyrimidin-2-yl)amino)cyclohexyl)cyclohexane-1-carboxamide], the DC50 is less than 0.5 µM.
For the compound `O=C1CCC(Nc2ccc(N3CCC(CC4CCN(C(=O)[C@H]5CC[C@H](Nc6ncc(F)c(-c7cccc(N8CCCOC8=O)c7)n6)CC5)CC4)CC3)c(F)c2)C(=O)N1` (stereo partly drawn) [Compound 425, trans-3-((3-fluoro-4-(4-((1-(-4-((5-fluoro-4-(3-(2-oxo-1,3-oxazinan-3-yl)phenyl)pyrimidin-2-yl)amino)cyclohexane-1-carbonyl)piperidin-4-yl)methyl)piperidin-1-yl)phenyl)amino)piperidine-2,6-dione], the DC50 is less than 0.5 µM.
Regarding `O=C1CCC(Nc2ccc(N3CCN(CC4CCN(C(=O)[C@H]5CC[C@H](Nc6ncc(F)c(-c7cccc(N8CCCOC8=O)c7)n6)CC5)CC4)CC3)c(F)c2)C(=O)N1` (stereo partly drawn) [Compound 426, trans-3-[3-fluoro-4-[4-[[1-[4-[[5-fluoro-4-[3-(2-oxo-1,3-oxazinan-3-yl)phenyl]pyrimidin-2-yl]amino]cyclohexanecarbonyl]-4-piperidyl]methyl]piperazin-1-yl]anilino]piperidine-2,6-dione], the DC50 was less than 0.5 µM.
The figure for `O=C1CCC(Nc2ccc(C3CCN(CC4CCN(C(=O)[C@H]5CC[C@H](Nc6ncc(F)c(-c7cccc(N8CCCOC8=O)c7)n6)CC5)CC4)CC3)c(F)c2)C(=O)N1` (stereo partly drawn) [Compound 427, trans-3-((3-fluoro-4-(1-((1-(4-((5-fluoro-4-(3-(2-oxo-1,3-oxazinan-3-yl)phenyl)pyrimidin-2-yl)amino)cyclohexane-1-carbonyl)piperidin-4-yl)methyl)piperidin-4-yl)phenyl)amino)piperidine-2,6-dione] is less than 0.5 µM.
